Results: ChEMBL document CHEMBL1157539, “Thousands of chemical starting points for antimalarial lead identification” (Nature, 2010)

The compounds below were run on Plasmodium falciparum (assay: GSK_TCMDC: Inhibition of Plasmodium falciparum 3D7 in whole erythrocytes, using parasite LDH activity as an index of growth.). Conditions: Plasmodium falciparum, 3D7.
Type: functional, organism-based
In the case of `CN(C)CCCOc1ccc(CN2CC[C@H](NC(=O)c3ccc(Cl)c(Cl)c3)C2)cc1Cl`, the XC50 is reported as 957 nM. With `Cc1cc(CNCCCCCCCNCc2cccc([N+](=O)[O-])c2)ccc1O` the XC50 was 637 nM. In the case of `COC(=O)Nc1nc2cc3c(cc2s1)OCCO3`, the XC50 is reported as 841 nM. Work on `CCN(CC)C(=O)c1cccc(C=Cc2ccc(-c3c(C)[nH]c(C)c(Cl)c3=O)cc2)c1` yielded an XC50 of 259 nM. `CC(C)c1ccc(NC(=O)c2ccc(C(=O)NCC3CCN(CC4CCCCC4)CC3)cc2)cc1` showed an XC50 of 900 nM. For `CS(=O)(=O)c1ccccc1CNC(=O)c1ccc(-c2cccc(-c3nc4cc(C(F)(F)F)ccc4[nH]3)c2)cc1`, the XC50 was 866 nM. For `CCCC(=O)NC(NC(=S)Nc1ccc([N+](=O)[O-])cc1)C(Cl)(Cl)Cl` (stereo not given), the XC50 was 1030 nM. Compound `Clc1cc(Nc2ccnc3ccc(Br)cc23)ccc1Oc1ccc2ccccc2c1Cl` has an XC50 of 725 nM. For `O=C(Nc1cccc(CN2CCN(C(=O)c3cccc(Cl)c3)CC2)c1)c1cccs1`, the XC50 was 184 nM. `O=C(Nc1ccc(Cn2ncc(N3CCCNCC3)c(Cl)c2=O)cc1)Nc1cc(Cl)cc(Cl)c1` was tested, and the XC50 was 866 nM. In the case of `CC1CCCCC1N(C)C1CCN(CCCNC(=O)C=Cc2cccc(C(F)(F)F)c2)CC1` (stereo not given), the XC50 is reported as 772 nM. Compound `COc1ccc([N+](=O)[O-])cc1N(Cc1ccccc1-c1ccccc1)S(=O)(=O)c1ccc(C(F)(F)F)cc1` has an XC50 of 784 nM. With `O=[N+]([O-])c1ccc2nc(Nc3cccc(C(F)(F)F)c3)c(Nc3cccc(C(F)(F)F)c3)nc2c1` the XC50 was 483 nM. `CC1(C)C(=O)Nc2ccccc2N1C(=O)CN1CCN(c2ccccc2O)CC1` gave an XC50 of 1070 nM. In the case of `CCN(CC)CCON=Cc1cc(C)c2[nH]c3ccc(OCc4ccccc4)cc3c2c1C`, the XC50 is reported as 972 nM. Compound `CN(C)CCOc1cc(NC(=O)Nc2ccc(-c3ccncc3)c(C(F)(F)F)c2)ccc1Cl` has an XC50 of 991 nM. Work on `COc1ccc(C(F)(F)F)cc1N1CCN(CCCCNC(=O)c2ccc(NC(=O)c3ccc(Cl)cc3)cc2)CC1` yielded an XC50 of 909 nM. `CNC(=O)c1cnc(Nc2ccc(N3CCN(C)CC3)cc2)nc1Nc1cccc(OC(C)C)c1` showed an XC50 of 147 nM. Compound `Cc1[nH]c(C)c(-c2ccc(Nc3ccc(C(F)(F)F)cn3)cc2)c(=O)c1Br` has an XC50 of 26 nM. Compound `COc1ccc2nccc(N3CCC(NCc4ccc5c(n4)NC(=O)CS5)CC3)c2n1` has an XC50 of 860 nM. For `Cn1c(N)c(C(=O)CSc2ncc(-c3ccc(F)cc3)n2Cc2ccccc2)c(=O)n(C)c1=O`, the XC50 was 569 nM. `CC(=O)Nc1nc(C(=O)Nc2cccc(-c3ccc(-c4nc5ccccc5[nH]4)cc3)c2)cs1` was tested, and the XC50 was 421 nM. `CCOC(=O)c1ccc(NC(=O)Nc2cccc(-c3ccc(-c4nc5cccc(C)c5[nH]4)s3)c2)cc1` showed an XC50 of 144 nM. Compound `COc1ccc(C(C)Nc2nc(N)c3cc(OC)c(OC)cc3n2)cc1` (stereo not given) has an XC50 of 936 nM. `Cc1ccc(/C=C/C(=O)NCCCCCN2CCCN(C(=O)Nc3ccc(Cl)c(Cl)c3)CC2)cc1` showed an XC50 of 942 nM. `CN(C)c1cccc(NC(=O)NC2N=C(c3ccccc3)c3ccccc3N(CC(=O)N(C)c3ccccc3)C2=O)c1` (stereo not given) showed an XC50 of 947 nM. With `Cc1ccc(NC(=O)c2ccc3ncccc3c2)cc1OC1CCN(Cc2ccsc2)C1` (stereo not given) the XC50 was 802 nM. Work on `COc1ccc(-c2csc(C(=O)NC3CCC(N4CCC(c5ccccc5C)CC4)CC3)c2)cc1` (stereo not given) yielded an XC50 of 378 nM. With `O=C(/C=C/C=C/c1ccc(Cl)c(Cl)c1)NCCCCCN1CCCC2CCCCC21` (stereo not given) the XC50 was 954 nM. For `Cc1cc(CNCCCCCCNCc2cccc([N+](=O)[O-])c2)ccc1O`, the XC50 was 723 nM. With `COc1ccc(-c2cc(-c3ccc(S(C)(=O)=O)cc3)cnc2N)cn1` the XC50 was 187 nM. `Cc1cc2[nH]c(-c3ccc(C(=O)NCCCN4CCN(c5cccc(Cl)c5)CC4)cc3)nc2cc1Cl` gave an XC50 of 769 nM. `Cc1cc(NC(=O)c2cccs2)ccc1OC1CCN(Cc2ccc(F)cc2)C1` (stereo not given) showed an XC50 of 669 nM. `Cc1cccc2nc(-c3ccc(-c4cccc(CNCCCN5CCCC5=O)c4)cc3)[nH]c12` gave an XC50 of 840 nM. `CC(Cc1ccc(OCC(=O)NCC2CCN(CCc3cccc(Cl)c3)CC2)cc1)NCCc1cccc(Cl)c1` (stereo not given) showed an XC50 of 663 nM. Compound `Cc1cccc(CNc2nc(C)cc(N[C@@H](CC(C)C)C(=O)NCc3cccc(F)c3)n2)c1` has an XC50 of 1180 nM. `O=C(Nc1cccc2ccccc12)N1CCC(NS(=O)(=O)c2cccc(C(F)(F)F)c2)CC1` was tested, and the XC50 was 913 nM. For `CN(C)C(CNC(=O)c1cc(-c2ccncc2)c(-c2ccc(NC(=O)Nc3cccc(F)c3)cc2)o1)c1ccccc1` (stereo not given), the XC50 was 772 nM. In the case of `COc1ccc(C2=CCN(c3ccc(Cl)c(Cl)c3)C2=O)cc1OCCN1CCCCC1`, the XC50 is reported as 784 nM. For `Oc1cccc(-c2nc(-c3ccccc3)c(-c3ccc4oc5ccc(-c6[nH]c(-c7cccc(O)c7)nc6-c6ccccc6)cc5c4c3)[nH]2)c1`, the XC50 was 795 nM. Work on `CCS(=O)(=O)c1ccc(OC)c(Nc2nccc(-c3c(-c4cccc(NC(=O)c5c(F)cccc5F)c4)nn4ncccc34)n2)c1` yielded an XC50 of 1030 nM. Work on `CC(C)(C)NS(=O)(=O)c1cc(C(=O)N2CCC(CCN3CCC(O)(c4cccc(C(F)(F)F)c4)CC3)(c3cccc(F)c3)CC2)c(Cl)cc1F` yielded an XC50 of 858 nM. `COc1c(CNCCCCCCNCc2cc(Cl)c3ccccc3c2OC)cc(Cl)c2ccccc12` was tested, and the XC50 was 937 nM. With `O=C(Nc1ccc(OC2CCN(Cc3ccsc3)CC2)c(Cl)c1)c1ccc(F)cc1` the XC50 was 647 nM. `COc1cccc(CCNc2nc(NCc3ccccc3)c3cc(OC)c(OC)cc3n2)c1` gave an XC50 of 321 nM. For `CC(C)CSc1cc(C(=O)Nc2cc(Cl)ccc2O)ccn1`, the XC50 was 670 nM. Work on `COc1ccc(NC(=O)/C=C/c2ccc(-c3ccccc3)cc2)cc1N1CCN(C)CC1` yielded an XC50 of 906 nM. Work on `CCCC(=O)Nc1ccc(OCCCN(Cc2ccccc2OC(F)(F)F)c2ccc(C#N)c(C(F)(F)F)c2)cc1` yielded an XC50 of 600 nM. `Cc1cc(C)c2c(c1)C(=NO)CCN2` gave an XC50 of 945 nM. Work on `COc1cc(F)c2ncc(Cl)c(C(O)CN3CCC(NC(=O)c4ccc5c(n4)NC(=O)CO5)CC3)c2c1` (stereo not given) yielded an XC50 of 754 nM. With `COc1ccc2nc(-c3cc(-c4ccc(NC(C)=O)cc4)cnc3N)[nH]c2c1` the XC50 was 1240 nM. With `O=c1cc(NCCCNCc2sc(Br)nc2Br)[nH]c2ccccc12` the XC50 was 866 nM. With `COc1ccc(F)cc1-c1ccc(C(=O)N2CCCN(c3ccc(C(F)(F)F)cn3)CC2)cc1` the XC50 was 157 nM. `CCOC(=O)c1cnc2c(OC)cc(OC)c(Cl)c2c1Nc1cccc(C)c1` gave an XC50 of 844 nM. `Cc1cc(N[C@@H](CC(C)C)C(=O)NCc2cccc(F)c2)nc(Nc2ccccc2)n1` gave an XC50 of 1090 nM. In the case of `Cc1ccc(CNc2ccc3ncc(-c4cccc(C(=O)NCCN(C)C)c4)n3n2)c(C)c1`, the XC50 is reported as 588 nM. Compound `CN(CCCc1c[nH]c2ccccc12)CCC1CCC(NC(=O)/C=C/c2ccc(Cl)c(Cl)c2)CC1` (stereo not given) has an XC50 of 650 nM. Work on `Nc1nc(NCC2CCC(CNS(=O)(=O)c3cccc4ccccc34)CC2)nc2ccccc12` (stereo not given) yielded an XC50 of 804 nM. `CCCCCCCc1cc(O)c2c(c1)OC(C)(C)c1ccncc1-2` was tested, and the XC50 was 1150 nM. `CCCCCCN1CCC(NCc2cccc3ccccc23)CC1` was tested, and the XC50 was 811 nM. For `CC1(C)CN(CCC2CCC(NC(=O)/C=C/c3ccccc3F)CC2)Cc2ccc(C#N)cc21` (stereo not given), the XC50 was 1110 nM. `CN(Cc1ccc(C#N)cc1)C1CCN(c2cc(NC(=O)c3cccc(F)c3)ccn2)CC1` showed an XC50 of 1750 nM. `c1ccc2c(c1)cc(CNCCCN1CCN(CCCNCc3cc4ccccc4c4ccccc34)CC1)c1ccccc12` gave an XC50 of 204 nM. With `CO/C(=C\C=C\c1cc2cc(Cl)c(Cl)cc2[nH]1)C(=O)NCCCN1CCN(c2ccncc2)CC1` the XC50 was 733 nM. `CC(=O)Nc1ccc(CN2CCN(C(c3ccc(F)cc3)c3ccc(F)cc3)CC2)cc1` showed an XC50 of 831 nM. `O=S(=O)(NC1CCCCN(Cc2ccccc2O)C1)c1ccc(C(F)(F)F)cc1` (stereo not given) showed an XC50 of 1300 nM. With `O=C(NC1CCN(Cc2ccccc2)CC1)c1ccc(-c2nc3cc(F)c(F)cc3[nH]2)s1` the XC50 was 835 nM. Compound `COc1cc2nc(NCCc3ccccc3)nc(NCc3cc(C)no3)c2cc1OC` has an XC50 of 239 nM. With `CN(c1ccc(NC(=O)Nc2cc(C(C)(C)C)on2)cc1)c1ccnc(NCCOC(=O)Nc2cc(C(C)(C)C)on2)n1` the XC50 was 752 nM. With `Cc1ccc(CON2C(N)=NC(N)=NC23CCCCC3)c2ccccc12` the XC50 was 72.6 nM. `CCOc1cc(Cc2cnc(N)nc2N)ccc1OC` showed an XC50 of 1250 nM. `CN(CCC(CCN1CCC(c2c[nH]c3ccccc23)CC1)c1ccccc1)C(=O)Nc1ccc(Cl)c(Cl)c1` (stereo not given) gave an XC50 of 1190 nM. Compound `O=C(Nc1ccc(OC2CCN(Cc3ccc(F)cc3)CC2)cc1)c1cccs1` has an XC50 of 969 nM. Compound `O=c1cc(NCCCNCc2cccc(OC(F)(F)C(F)F)c2)[nH]c2ccccc12` has an XC50 of 1270 nM. `Cc1nc(C(=O)N2CCCC[C@H]2CNC(=O)c2ccc(-c3ccc(N4CCCC4=O)cc3C)cc2)c(-c2ccc(F)cc2)s1` was tested, and the XC50 was 459 nM. For `N#Cc1ccc(N2CCN(Cc3ccc(-c4cccc(-c5nc6ccccc6[nH]5)c4)cc3)CC2)nc1`, the XC50 was 908 nM. `CC(CN(C)C)C(=O)Nc1cccc(-c2cccc(-c3nc4cc(F)ccc4[nH]3)c2)c1` (stereo not given) gave an XC50 of 826 nM. Compound `Cc1cccc(S(=O)(=O)Nc2cccc(CCN3CCC(N4CCCCC4)CC3)c2)c1` has an XC50 of 1330 nM. With `CC(=O)Nc1ccc(S(=O)(=O)Nc2ccc(Nc3nc(C)cc(N4CCCCC4)n3)cc2)cc1` the XC50 was 779 nM. In the case of `NC(=O)c1ccc(NCC(=O)Nc2cccc(-c3cccc(-c4nc5ccccc5[nH]4)c3)c2)cc1`, the XC50 is reported as 987 nM. `c1ccc(CCNc2ccnc(Nc3ccc4[nH]nnc4c3)n2)cc1` gave an XC50 of 863 nM. `CCc1ccc(NC(=O)c2ccc(CN3CCCN(CC4CCCCC4)CC3)cc2)cc1` showed an XC50 of 711 nM. `Cc1cccc2nc(-c3ccc(-c4ccc(CNCc5ccc(CN)cc5)cc4)s3)[nH]c12` showed an XC50 of 442 nM. Work on `CC(=O)Nc1ccc(CCNC(C)Cc2ccc(C(=O)Nc3ccc(CC(C)NCCc4cccc(Cl)c4)cc3)cc2)cc1` (stereo not given) yielded an XC50 of 330 nM. `CCN1CCN(Cc2ccc(-c3ccc(NS(=O)(=O)c4cccc5cccnc45)cc3)cc2)CC1` was tested, and the XC50 was 922 nM. In the case of `S=c1nc(-c2ccccc2)n2ccsc2n1`, the XC50 is reported as 176 nM. Work on `COc1cccc(CN2CCC(C(=O)Nc3ccc(-c4nc5ccccc5[nH]4)cc3)CC2)c1` yielded an XC50 of 627 nM. `Nc1ncc(-c2ccc(S(=O)(=O)Nc3ccc(C(=O)N[C@@H](CCC(=O)O)C(=O)O)cc3)cc2)c(=O)[nH]1` gave an XC50 of 803 nM. `Cc1cc(=NN=Cc2cccc(Cl)c2)c2ccccc2[nH]1` was tested, and the XC50 was 255 nM. For `CCCCCN1CCN(Cc2cccc(NC(=O)c3ccc(Cl)c(Cl)c3)c2)CC1`, the XC50 was 857 nM. `Cc1cccc2nc(-c3ccc(-c4cccc(CNCCCNS(C)(=O)=O)c4)s3)[nH]c12` was tested, and the XC50 was 1020 nM. Work on `CS(=O)(=O)Nc1ccc2c(C3CCN(CCC4CCN(C(=O)/C=C/c5ccc(Cl)c(Cl)c5)CC4)CC3)c[nH]c2c1` yielded an XC50 of 599 nM. Compound `FC(F)(F)c1ccc2[nH]c(-c3ccc(-c4cccc(CN5CCCCC5)c4)cc3)nc2c1` has an XC50 of 144 nM. `N#CCCN1CCN(Cc2cccc(-c3ccc(-c4nc5ccccc5[nH]4)s3)c2)CC1` was tested, and the XC50 was 759 nM. `Cc1cc(Nc2ccc(Cl)cc2)n2nc(C(F)(F)F)nc2n1` gave an XC50 of 117 nM.
